Laboratory results reported in patent US20160361443A1, “Ultrasound Molecular Imaging With Targeted Biocompatible Microbubbles” (University of Pittsburgh - Of the Commonwealth System of …, priority 2015, published 2016).
Where “and” joins values, the source holds several entries; their conditions need not be identical. Identical values can stand only once. Entries after “also recorded” stand apart in the source; their conditions may differ. Where no end group is shown, it is not given here. Side-chain parts run from the residue outwards. microbubble albumin shell = not defined here

B1: MBESEL: polymer/albumin double-shell microbubble bearing biotinylated peptide AF10166 (E-selectin targeting peptide) via biotin-streptavidin bridging (peptide)
peptide: DITWDQLWDLMK
modifications: also: biotinylated, site not given here, held on microbubble shell by biotin-streptavidin bridging
notes: The peptide stood in the assays as many copies on a gas-filled microbubble (outer shell crosslinked human albumin, inner layer PDLLA); streptavidin and albumin shell are not; also called E-selectin targeted microbubble; MBEsel (biotin-streptavidin linker)
B2: MB Esel(MAL): polymer/albumin double-shell microbubble bearing the E-selectin targeting peptide with one N-terminal cysteine, joined by a thioether bond … (peptide)
peptide: C([BM(PEG)3-microbubble albumin shell])DITWDQLWDLMK
modifications: reading uncertain; also: thioether-conjugated to polymer/albumin microbubble
notes: also called microbubble Esel(MAL); E-sel target MB (Mal)

Columns and labels:
[1] = system: Rat heart microvascular ECs; test: Parallel plate perfusion chamber, MB adhesion to cultured endothelial cells; format: cell-based; conditions: for MB adhesion to inflamed (activated) ECs: IL-1b-activated ECs; for MB adhesion to inflamed (activated) ECs / MB adhesion to noninflamed (normal) ECs: 5×10^6 MB in 1 mL, wall shear rate 200 s-1; for MB adhesion to activated versus normal ECs (in words): in vitro flow chamber
Procedure: (§1) Targeted biodegradable polymer MB (3.4±1.3μm) were prepared bearing a 12-mer synthetic peptide on the surface with specific E-selectin affinity (MBESEL). See, FIG. 7. Control MB had scrambled peptide (MBCTL) or non-specific IgG (MBIgG). MB adhesion to cultured rat endothelial cells (EC) was assessed in a parallel plate flow system (n=3/condition). Intravital microscopy of rat cremaster microcirculation was performed after i.v. injection of each MB type under basal or activated conditions (scrotal TNF 5μg) (n=3 rats/condition). To determine if binding events could be imaged, 6 rats had 15 min coronary artery occlusion. After 4 hrs reflow, each rat received separate i.v. boluses of MBESEL, MBCTL, and MBIgG. Non-linear echo imaging was performed 3 and 3.5 min later. Videointensity (VI) differences between the 2 time points was attributed to target-specific signal.
Cultured rat heart microvessel endothelial cells were placed on glass cover slips. The cells were then stimulated with IL-1β (2 ng/ml) for 4 hrs and then perfused with 1 mL microbubbles (5×10^6 /mL)-MBE-SEL or MBCTL. These microbubbles were then subjected to a wall shear rate of 200 sec-1. See, FIG. 8. 20 random fields (n=3) were assessed. […] FIGS. 9A and 9B.
A parallel plate perfusion chamber was used to quantify MB adhesion to cultured endothelial cells (ECs).12 Rat heart microvascular ECs (VEC Technologies, Rensselaer, N.Y.) were grown to confluence on 25 mm 3 75 mm glass coverslips. Cells were incubated for 5 hours with 5 ng/mL interleukin-1b (Sigma-Aldrich, St. Louis, Mo.) to cause activation. Coverslips with normal or IL-1b-activated ECs ([…]; 3/condition) were mounted in the chamber and perfused with one of the three MB species (5×10^6 MB in 1 mL culture medium) at a wall shear rate of 200 s-1, followed by an additional 3 mL of plain culture medium. The chamber was then mounted on a microscope (Nikon TE200) and 20 random bright-field images (3 100) of the ECs were captured (ORCA285, Hamamatsu, Bridgewater, N.J.). The mean number of attached MBs/ECs was counted offline.

[2] = system: rat cremaster muscle microcirculation; test: Intravital microscopy of MB adhesion in vivo; conditions: for MB adhesion to inflamed microcirculation: TNF-a 5 μg intrascrotal; for MB adhesion to normal or inflamed microcirculation (in words): basal or TNF-a activated
Procedure: as §1
An intravital microscopy of rat cremaster muscle microcirculation was performed after intravenous injection of 1×10^8 MBE-SEL or MBCTL (n=3 per condition). Non-inflamed: 4 hrs after intrascrotal injection of saline. Inflamed : 4 hrs after intrascrotal injection of TNF-α (5 μg). Real-time images were captured and microbubble adhesion was quantified in venules at 5 minutes after microbubble injection in 20 random fields. See, FIGS. 10A and 10B.
Microscopy of the rat cremaster muscle microcirculation was used for real-time visualization of MB adhesion in vivo. Sprague Dawley rats (100-120 g) received intrascrotal injection of either tumor necrosis factor a (n=9, 5 μg, Thermo Scientific, Waltham, Mass.) or 1 mL saline (n=9). Four hours later, the cremaster muscle was exteriorized and mounted on an inverted fluorescent microscope (Nikon TE200). Each rat received one intravenous injection (1×10^8 MB) of either MBESEL or control MBs (MBCTL or MBIgG) in […], followed by a […] ([…], 3 rats per MB type/inflammatory status combination, total 6 groups). Five minutes after injection, bright-field microscopic imaging of 20 random fields was performed to identify microvessels, and epi-illumination fluorescent imaging was performed to identify MBs, followed by pentobarbital overdose. Images were analyzed offline for MB adhesion per field of view, defined as MB immobility lasting≧30 seconds.
(§2) All protocols were approved by the Institutional Animal Care and Use Committee at the University of Pittsburgh. […] (Sprague Dawley, Harlan Laboratories, Indianapolis, Ind.) were anesthetized with intraperitoneal sodium pentobarbital (50 mg/kg) and maintained with 1.5 to 2.0% inhaled isoflurane. Body temperature was maintained at 37° C. with a heating pad. The internal jugular vein was cannulated with a 20-gauge catheter for MB injection.

E-selectin = biological target: T1, E-selectin (Rattus norvegicus, UniProt P98105); test: Ultrasound molecular imaging in rat myocardial ischemia-reperfusion model; format: in vivo; conditions: for Contrast enhancement of postischemic myocardium (in words): 4 h after reperfusion, 3 min after MB injection
T1 construct: Immunofluorescent staining in all rats consistently confirmed microvascular E-selectin and ICAM-1 expression in postischemic myocardium; from tissue
T1 sequence (P98105 22-549): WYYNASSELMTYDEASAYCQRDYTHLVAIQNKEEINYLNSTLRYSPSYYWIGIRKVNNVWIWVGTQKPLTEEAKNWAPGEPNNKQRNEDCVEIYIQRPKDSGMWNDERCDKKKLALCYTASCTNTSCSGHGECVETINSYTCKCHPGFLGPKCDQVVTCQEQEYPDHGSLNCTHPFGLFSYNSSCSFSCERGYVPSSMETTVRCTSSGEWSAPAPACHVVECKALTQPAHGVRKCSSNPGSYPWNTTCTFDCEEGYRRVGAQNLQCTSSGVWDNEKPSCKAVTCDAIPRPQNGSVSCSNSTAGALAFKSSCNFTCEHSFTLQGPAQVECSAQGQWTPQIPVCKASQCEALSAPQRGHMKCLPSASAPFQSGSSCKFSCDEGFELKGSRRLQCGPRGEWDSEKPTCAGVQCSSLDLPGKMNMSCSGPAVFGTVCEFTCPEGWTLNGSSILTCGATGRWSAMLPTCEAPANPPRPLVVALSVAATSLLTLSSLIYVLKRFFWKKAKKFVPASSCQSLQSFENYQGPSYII
Procedure: as §1
An open chest rat model of myocardial ischemia-reperfusion (n=6) was performed where the left anterior descending coronary artery was occluded for 15 minutes then reperfused. See, FIG. 11. At 4 hrs of reflow, the rat received separate i.v. injections of MBE-SEL or MBCTL (2.5×10^7 MBs). Triggered ultrasound imaging (8 MHz, MI 0.6, Sequoia CPS, Siemens) was performed 3 min after injection, followed by 5 destruction frames (MI 1.9) and a second imaging frame (MI 0.6) at 3.5 minutes. The videointensity difference between the two imaging frames was attributed to microbubble adhesion. See, FIG. 12.
as §2
A previously described rat model of acute myocardial ischemia and reperfusion was used for UMI of E-selectin overexpression as a marker of ischemic memory.^3 Anesthetized rats (n=6, 150-200 g) were intubated and mechanically ventilated. A lateral thoracotomy was performed, and the left anterior descending (LAD) coronary artery was occluded for 15 minutes and then reperfused. After 4 hours of reflow, each rat received separate intravenous injections of MBESEL, MBCTL, and MBIgG in random order (2.5×10^7 MBs in […] followed by a […]), and ultrasound imaging was performed as described below.
Thereafter, high mechanical index (MI) burst pulses were sent to ensure that all adhered and freely circulating MBs were destroyed prior to any subsequent injection. Typically, subsequent injections were given 5 minutes after MBs could no longer be detected in the left ventricular cavity on ultrasound imaging. The MB dosage was empirically chosen based on pilot studies assessing myocardial enhancement from various doses. At the end of the experiment, the LAD coronary artery was reoccluded, nontargeted myocardial contrast echocardiography (MCE) using plain lipid MBs was performed to delineate the risk area, and the rat was euthanized using pentobarbital overdose. Open-chest MCE in the short-axis view was performed using a contrast-specific imaging mode combining phase and amplitude modulation of the transmit signal (Cadence Contrast Pulse Sequencing, Sequoia 512, Siemens Ultrasound, Mountain View, Calif.) from a linear array transducer (15 L8) operating at 8 MHz. Probe position, dynamic range, gain settings, and focus were initially optimized and maintained constant. Ultrasound detection of bound MBs was performed using a previously described approach.^12,13 After 3 minutes to allow MB retention and washout of unbound MBs, end-systolic imaging was performed at an MI of 0.6, followed by an ultrasound burst pulse at MI of 1.9 to destroy the MBs and then end-systolic imaging 30 seconds later at MI 0.6. […]

[3] = biological target: T2, human E-selectin on TNFα-activated HUVEC cells (human, UniProt P16581 22-610); test: in vitro flow chamber, TNFα-activated HUVEC
T2 construct: whole, on cells
T2 sequence (looked up): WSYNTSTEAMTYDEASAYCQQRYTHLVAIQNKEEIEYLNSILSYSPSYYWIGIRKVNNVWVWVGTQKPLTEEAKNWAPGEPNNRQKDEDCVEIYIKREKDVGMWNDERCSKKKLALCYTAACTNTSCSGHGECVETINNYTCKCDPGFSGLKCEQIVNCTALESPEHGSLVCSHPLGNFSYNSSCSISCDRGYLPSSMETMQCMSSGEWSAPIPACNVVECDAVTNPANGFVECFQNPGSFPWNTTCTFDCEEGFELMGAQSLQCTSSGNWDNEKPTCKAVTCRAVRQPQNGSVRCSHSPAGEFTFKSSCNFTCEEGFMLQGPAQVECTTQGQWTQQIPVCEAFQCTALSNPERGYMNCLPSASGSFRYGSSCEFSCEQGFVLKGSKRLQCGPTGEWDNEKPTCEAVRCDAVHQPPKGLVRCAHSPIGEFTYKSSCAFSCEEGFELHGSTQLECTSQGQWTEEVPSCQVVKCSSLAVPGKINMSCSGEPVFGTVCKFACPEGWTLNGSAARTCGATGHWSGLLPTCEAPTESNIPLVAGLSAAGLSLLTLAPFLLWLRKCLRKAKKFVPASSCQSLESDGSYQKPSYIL

[4] = 4 h, 1×10^8 MB i.v., 5 min after injection
[5] = 15 min LAD occlusion, 4 h reflow, 2.5×10^7 MBs i.v., 3 min after injection

Molecule | MB adhesion to inflamed (activated) ECs [1] | MB adhesion to activated versus normal ECs (in words) [1] | MB adhesion to activated versus normal ECs (in words) ([1]; listed as MBcontrl) | MB adhesion to noninflamed (normal) ECs [1] | MB adhesion to inflamed microcirculation [2, 4] [MBs/field] | MB adhesion to normal or inflamed microcirculation (in words) [2] | Background-subtracted videointensity, postischemic (LAD) bed (E-selectin; [5]) | Contrast enhancement of postischemic myocardium (in words) (E-selectin) | MB adhesion to activated versus normal ECs (in words) ([1]; listed as MBE-SEL) | MB adhesion to activated versus normal ECs (in words) ([1]; listed as MBEsel) | MB adhesion to inflamed microcirculation (Example II) ([2]; activated conditions (scrotal TNF 5μg)) [MB/field] | MB adhesion to non-inflamed microcirculation (Example II) ([2]; basal conditions) [MB/field] | MB adhesion to noninflamed microcirculation ([2]; saline intrascrotal, 4 h, 1×10^8 MB i.v., 5 min after injection) [MBs/field] | Background-subtracted videointensity, nonischemic bed (E-selectin; [5]) | Contrast enhancement of postischemic myocardium (in words) (E-selectin; listed as MBEsel) | Linear relationship, size of risk area vs size of region of persistent contrast enhancement (r) (E-selectin; y=0.98x-0.01) | binding result [3]
MBCTL: Control microbubbles linked to the 12-mer randomized AF10166 sequence (H2NWKLDTLDMIWQD-COOH) via biotin-streptavidin (also: linked to microbubbles via biotin-streptavidin, site not given here) [reference compound] | 4.1±0.6 MB/EC and 5±2 MB/EC | no difference | minimal adhesion | 4±1 MB/EC | 1.5±0.3 | minimal attachment; also recorded: minimal adhesion | 4.0±1.0 dB and 4±1 dB | not seen |  |  |  |  |  |  |  |  | 
MBESEL: Double-layer albumin/PDLLA microbubbles conjugated with E-selectin targeting peptide AF10166 via biotin-streptavidin bridging chemistry (DITWDQLWDLMK; also: biotinylated, site not given here, on microbubble via biotin-streptavidin) | 17.4±1.8 MB/EC and 17±2 MB/EC |  |  | 5.9±3.4 MB/EC and 5±3 MB/EC | 4.8±1.2 | adhesion to inflamed circulation (arrows) but not to control, noninflamed circulation | 11.6±2.7 dB and 12±3 dB | persistent contrast enhancement of the previously ischemic LAD coronary artery territory | superior binding | greater adhesion | 96±23 | 34±8 | 1.7±0.4 | 3.6±0.8 dB and 4±1 dB | higher | 0.92 | 
B1 |  |  |  |  |  |  |  |  |  |  |  |  |  |  |  |  | binds
B2 |  |  |  |  |  |  |  |  |  |  |  |  |  |  |  |  | binds
